The target in the assay is Melanocortin receptor 4 (Homo sapiens, UniProt P32245). Nature of the assay: Displacement of [125I]Nle4-D-Phe7-alpha-MSH from human MC4 receptor expressed in COS1 cells. It is filed as cell-based, COS-1.
Sequence of Melanocortin receptor 4 (P32245 whole entry): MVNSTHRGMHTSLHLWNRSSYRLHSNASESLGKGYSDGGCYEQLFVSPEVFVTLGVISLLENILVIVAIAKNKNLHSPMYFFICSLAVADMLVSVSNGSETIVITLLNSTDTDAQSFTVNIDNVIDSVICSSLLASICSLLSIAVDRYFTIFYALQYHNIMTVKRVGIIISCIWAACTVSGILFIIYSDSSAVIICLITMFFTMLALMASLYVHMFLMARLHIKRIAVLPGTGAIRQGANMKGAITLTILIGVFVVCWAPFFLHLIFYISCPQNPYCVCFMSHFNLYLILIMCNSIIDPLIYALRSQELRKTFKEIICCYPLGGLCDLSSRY

Take `CC(C)N1CCN(C(CN2CCN(CCCc3ccccc3-c3ccc(-c4ccccc4)cc3)CC2)c2ccc(F)cc2)CC1` (racemic): the concentration for half-maximal inhibition (IC50) was determined as 228 nM.
Molecule `CN1CCN(C(CN2CCN(CCCc3ccc4ccccc4c3)CC2)c2ccc(F)cc2)CC1` (racemic) yielded an IC50 of 1190 nM.
On to `Fc1ccc(C(CN2CCN(CCCCc3cccc4ccccc34)CC2)N2CCNCC2)cc1` (racemic), for which the IC50 turned out to be 303 nM.
`CCN1CCN(C(CN2CCN(CCCCc3cccc4ccccc34)CC2)c2ccc(F)cc2)CC1` (racemic) yielded a concentration for half-maximal inhibition (IC50) of 105 nM.
The figure for `CCCN1CCN(C(CN2CCN(CCCCc3cccc4ccccc34)CC2)c2ccc(F)cc2)CC1` (racemic) is 177 nM.
Turning to `Fc1ccc(C(CN2CCN(CCCCc3cccc4ccccc34)CC2)N2CCN(C3CC3)CC2)cc1` (racemic), the IC50 worked out at 147 nM. The IC50 values of the last two molecules are within 1.5-fold of each other.
In turn, `CN1CCN(C(CN2CCN(CCCCc3cccc4ccccc34)CC2)c2ccccc2)CC1` (racemic) displayed an IC50 of 745 nM.
The molecule `CN1CCN(C(CN2CCN(CCCCc3cccc4ccccc34)CC2)c2cccc(F)c2)CC1` (racemic) returned an IC50 of 653 nM.
`CN1CCN(C(CN2CCN(CCCCc3cccc4ccccc34)CC2)c2ccccc2Br)CC1` (racemic) returned an IC50 of 2300 nM.
In the case of `CN1CCN(C(CN2CCN(CCCCc3cccc4ccccc34)CC2)c2cccc(Br)c2)CC1` (racemic), the IC50 turned out to be 565 nM.
The molecule `CN1CCN(C(CN2CCN(CCCCc3cccc4ccccc34)CC2)c2ccc(Br)cc2)CC1` (racemic) had an IC50 of 159 nM.
As to `Cc1ccc(C(CN2CCN(CCCCc3cccc4ccccc34)CC2)N2CCN(C)CC2)cc1` (racemic), the IC50 came out at 296 nM.
As to `COc1ccc(C(CN2CCN(CCCCc3cccc4ccccc34)CC2)N2CCN(C)CC2)cc1` (racemic), the half-inhibitory concentration (IC50) was determined as 871 nM.
The figure for `CN1CCN(C(CN2CCN(CCCCc3cccc4ccccc34)CC2)c2ccc(C(F)(F)F)cc2)CC1` (racemic) is 226 nM; for `CN1CCN(C(CN2CCN(CCCCc3cccc4ccccc34)CC2)c2ccc([N+](=O)[O-])cc2)CC1` (racemic) it is 263 nM; for `CN1CCN(C(CN2CCN(CCCCc3cccc4ccccc34)CC2)c2ccc(N)cc2)CC1` (racemic) it is 3590 nM.
Regarding `COc1ccc(CCCCN2CCN(CC(c3ccc(F)cc3)N3CCN(C)CC3)CC2)c2ccccc12` (racemic), the IC50 was 228 nM. Compared with the last molecule, the IC50 is about 16-fold lower.
Regarding `CC(C)N1CCN(C(CN2CCN(CCCCc3c(O)ccc4ccccc34)CC2)c2ccc(F)cc2)CC1` (racemic), the IC50 came out at 131 nM.
`CC(C)Oc1ccc2ccccc2c1CCCCN1CCN(CC(c2ccc(F)cc2)N2CCN(C(C)C)CC2)CC1` (racemic) had a concentration for half-maximal inhibition (IC50) of 22 nM.
In turn, `CCC(CC)N1CCN(C(CN2CCN(CCCCc3c(OC)ccc4ccccc34)CC2)c2ccc(F)cc2)CC1` (racemic) came in with an IC50 of 82.8 nM.
`COc1ccc2ccccc2c1CCCCN1CCN(CC(c2ccc(F)cc2)N2CCN(C3CCCC3)CC2)CC1` (racemic) gave a half-maximal inhibitory concentration (IC50) of 47.2 nM.
Regarding `CC(C)N1CCN(C(CN2CCN(CCc3ccccc3-c3ccccc3)CC2)c2ccc(F)cc2)CC1` (racemic), the IC50 came out at 186 nM. This IC50 is about 3.9-fold higher than that of the molecule before.
`COc1ccc2ccccc2c1CCCCN1CCN(CC(c2ccc(F)cc2)N2CCN(C(C)(C)C)CC2)CC1` (racemic) displayed a concentration for half-maximal inhibition (IC50) of 18 nM.
In the case of `CC(C)N1CCN(C(CN2CCN(CCCCc3ccccc3-c3ccccc3)CC2)c2ccc(F)cc2)CC1` (racemic), the 50% inhibitory concentration (IC50) was 65.1 nM.
In turn, `CC(C)N1CCN(C(CN2CCN(CCCc3cccc(-c4ccccc4)c3)CC2)c2ccc(F)cc2)CC1` (racemic) gave a concentration for half-maximal inhibition (IC50) of 156 nM.
Under `CC(C)N1CCN(C(CN2CCN(CCCc3ccc(-c4ccccc4)cc3)CC2)c2ccc(F)cc2)CC1` (racemic) stands 243 nM; under `COc1cccc(-c2ccccc2)c1CCCN1CCN(CC(c2ccc(F)cc2)N2CCN(C(C)C)CC2)CC1` (racemic), 15.2 nM; under `CC(C)N1CCN(C(CN2CCN(CCCc3ccccc3-c3ccccc3F)CC2)c2ccc(F)cc2)CC1` (racemic), 36.8 nM.
In the case of `CC(C)N1CCN(C(CN2CCN(CCCc3ccccc3-c3ccc(Cl)cc3)CC2)c2ccc(F)cc2)CC1` (racemic), the half-maximal inhibitory concentration (IC50) is 53.2 nM.
The figure for `Cc1ccc(-c2ccccc2CCCN2CCN(CC(c3ccc(F)cc3)N3CCN(C(C)C)CC3)CC2)cc1` (racemic) is 41.8 nM; for `CC(C)N1CCN(C(CN2CCN(CCCc3ccccc3-c3ccc(C(C)(C)C)cc3)CC2)c2ccc(F)cc2)CC1` (racemic) it is 100 nM.
`CN1CCN(C(CN2CCN(Cc3cccc4ccccc34)CC2)c2ccc(F)cc2)CC1` (racemic) yielded an IC50 of 594 nM.
`CN1CCN(C(CN2CCN(CCCc3cccc4ccccc34)CC2)c2ccc(F)cc2)CC1` (racemic): the IC50 is 208 nM.
In turn, `CN1CCN(C(CN2CCN(CCCCc3cccc4ccccc34)CC2)c2ccc(F)cc2)CC1` (racemic) showed a half-inhibitory concentration (IC50) of 118 nM.
`Fc1ccc(C(CN2CCN(CCCCc3cccc4ccccc34)CC2)N2CCN(C3CCCCC3)CC2)cc1` (racemic): the IC50 is 241 nM. Against the preceding molecule, the IC50 is about 2-fold higher.
Turning to `CN1CCN(C(CN2CCN(CCCCCc3cccc4ccccc34)CC2)c2ccc(F)cc2)CC1` (racemic), the IC50 turned out to be 218 nM.
`CC(C)N1CCN(C(CN2CCN(CCCc3ccccc3-c3ccc(C(F)(F)F)cc3)CC2)c2ccc(F)cc2)CC1` (racemic) came in with a concentration for half-maximal inhibition (IC50) of 62.8 nM.
`CC(C)N1CCN(C(CN2CCN(CCCc3ccccc3-c3ccc(OC(F)(F)F)cc3)CC2)c2ccc(F)cc2)CC1` (racemic) showed an IC50 of 85.9 nM.
As to `Fc1ccc(C(CN2CCN(CCCCc3cccc4ccccc34)CC2)N2CCN(c3ccccc3)CC2)cc1` (racemic), the IC50 was > 10000 nM.
`CN1CCN(C(CN2CCN(CCc3ccc4ccccc4c3)CC2)c2ccc(F)cc2)CC1` (racemic) showed a concentration for half-maximal inhibition (IC50) of 1870 nM.
`COc1ccc2ccccc2c1CCCCN1CCN(CC(c2ccc(F)cc2)N2CCN(C(C)C)CC2)CC1` (racemic) yielded an IC50 of 12.7 nM.
Regarding `CN1CCN(C(CN2CCN(CCCCc3cccc4ccccc34)CC2)c2ccc(Cl)cc2)CC1` (racemic), the half-inhibitory concentration (IC50) stood at 132 nM.
`CN1CCN(C(CN2CCN(CCCCc3ccc4ccccc4c3)CC2)c2ccc(F)cc2)CC1` (racemic) showed a half-maximal inhibitory concentration (IC50) of 336 nM.
The figure for `CC(C)N1CCN(C(CN2CCN(CCCCc3cccc4ccccc34)CC2)c2ccc(F)cc2)CC1` (racemic) is 72.3 nM; for `CC(C)N1CCN(C(CN2CCN(CCCCc3c(Br)ccc4ccccc34)CC2)c2ccc(F)cc2)CC1` (racemic) it is 36.8 nM.
Under `CCOc1ccc2ccccc2c1CCCCN1CCN(CC(c2ccc(F)cc2)N2CCN(C(C)C)CC2)CC1` (racemic) stands 26 nM.
`CC(C)N1CCN(C(CN2CCN(CCCc3ccccc3-c3ccc(N(C)C)cc3)CC2)c2ccc(F)cc2)CC1` (racemic): the half-inhibitory concentration (IC50) came to 92.5 nM. This IC50 is about 3.6-fold higher than that of the molecule before.
Take `CN1CCN(C(CN2CCN(CCc3cccc4ccccc34)CC2)c2ccc(F)cc2)CC1` (racemic): the IC50 was 567 nM. Compared with the last molecule, the IC50 is about 6.1-fold higher.
Under `CN1CCN(C(CN2CCN(CCCCCCc3cccc4ccccc34)CC2)c2ccc(F)cc2)CC1` (racemic) stands 341 nM.
The molecule `CN1CCN(C(CN2CCN(Cc3ccc4ccccc4c3)CC2)c2ccc(F)cc2)CC1` (racemic) came in with an IC50 of 1250 nM.
`COc1ccc(-c2ccccc2CCCN2CCN(CC(c3ccc(F)cc3)N3CCN(C(C)C)CC3)CC2)cc1` (racemic) had an IC50 of 42.6 nM.
Under `COc1ccc2ccccc2c1CCCCN1CCN(CC(c2ccc(F)cc2)N2CCN(C)CC2)CC1` (racemic) stands 57.3 nM.
Turning to `CN1CCN(C(CN2CCN(CCCCc3cccc4ccccc34)CC2)c2ccc(-c3ccccc3)cc2)CC1` (racemic), the concentration for half-maximal inhibition (IC50) is 756 nM.
Turning to `COc1ccc2ccccc2c1CCCCN1CCN(CC(c2ccc(F)cc2)N2CCN(C(C)C)CC2)CC1` (single isomer, unassigned; (-)), the IC50 is 8.13 nM.
In turn, `COc1ccc2ccccc2c1CCCCN1CCN(CC(c2ccc(F)cc2)N2CCN(C(C)C)CC2)CC1` (stereo in doubt; (+)-10bg) gave a 50% inhibitory concentration (IC50) of 22 nM.

For orientation: IC50 means the midpoint of a concentration-inhibition curve. Read a high IC50 as a need for much substance.

(Values after ChEMBL document CHEMBL1142906, “Structure-activity relationships of novel piperazines as antagonists for the melanocortin-4 receptor” (Bioorg Med Chem, 2007).)
